Results from the supplement of paper PMC12137928.
Counter-ions that a name gives are not always drawn.

System: HCT116
Conditions: 72 h
In short: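 Each well of the 1536-well plates received 250 HCT116 cells, which attached over 5 h. Luminescence was measured with CellTiter-Glo, scaled with vehicle as 0% and positive control as -100%, and pattern-corrected. A four-parameter Hill fit yielded IC50 and maximal efficacy.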

IC50 cell viability (ICRF193 0 nM) [µM] | IC50 cell viability (ICRF193 200 nM) [µM] | SMILES
> 45.8 | > 45.8 | CCCCCCCCCC(=O)OCCN1CCN(CC/C=C2/c3ccccc3Sc3ccc(Cl)cc32)CC1 [Zuclopenthixol Decanoate]
> 45.8 | > 45.8 | CS(=O)(=O)n1cc2c(n1)CN([C@H]1CO[C@H](c3cc(F)ccc3F)[C@@H](N)C1)C2 [MK-3102]
> 45.8 | > 45.8 | CCOC(=O)[C@H](CCc1ccccc1)N[C@H]1CCc2ccccc2N(CC(=O)O)C1=O [Benazepril]
> 45.8 | > 45.8 | Fc1ccc([C@@H]2CCNC[C@H]2COc2ccc3c(c2)OCO3)cc1 [Paroxetine]
> 45.8 | > 45.8 | CC(COc1ccccc1)NC(C)C(O)c1ccc(O)cc1 (centres undefined) [Isoxsuprine hydrochloride]
> 45.8 | > 45.8 | CCN(CC)C(=O)C1CN2CCc3cc(OC)c(OC)cc3C2CC1OC(C)=O (centres undefined) [Benzquinamide]
> 45.8 | > 45.8 | Nc1ccc(/N=N/c2ccccc2)c(N)n1 [Phenazopyridine hydrochloride]
> 45.8 | > 45.8 | NC(=O)Cc1cccc(C(=O)c2ccccc2)c1N [Nepafenac]
> 45.8 | > 45.8 | c1ccc(CC2=NCCN2)cc1 [Tolazoline hydrochloride]
> 45.8 | > 45.8 | Clc1ccccc1CN1CCc2sccc2C1 [Ticlopidine hydrochloride]
> 45.8 | > 45.8 | CN(C)CCOc1ccccc1Cc1ccccc1 [Phenyltoloxamine citrate]
> 45.8 | > 45.8 | CN1CCN(C2=Nc3ccccc3Oc3ccc(Cl)cc32)CC1 [Loxapine succinate]
> 45.8 | > 45.8 | NCCNC(=O)c1ccc(Cl)cn1 [Lazabemide hydrochloride]
> 45.8 | > 45.8 | COc1ccc(C2C(=O)c3ccccc3C2=O)cc1 [Anisindione]
> 45.8 | > 45.8 | COc1ccc(/C=C/C(=O)OCCC(C)C)cc1 [Amiloxate]
> 45.8 | > 45.8 | OC/C=C/c1ccccc1 [Cinnamyl alcohol]
> 45.8 | > 45.8 | Cc1cccc(C)c1NC(=O)C(C)N (centres undefined) [Tocainide hydrochloride]

Second part, the compound before the results:

SMILES | IC50 cell viability (ICRF193 0 nM) [µM] | IC50 cell viability (ICRF193 200 nM) [µM]
CCCC(=O)O[C@]1(C(=O)CC)CC[C@H]2[C@@H]3CCC4=CC(=O)CC[C@]4(C)[C@H]3[C@@H](O)C[C@@]21C [Resocortol butyrate] | > 45.8 | > 45.8
NC(=O)[C@@H]1C[C@]2(NC(=O)NC2=O)c2cc(F)ccc2O1 [Fidarestat] | > 45.8 | > 45.8
NCC(O)c1cccc(O)c1 (centres undefined) [Norphenylephrine hydrochloride] | > 45.8 | > 45.8
O=C(O)c1nc(=O)[nH]c(=O)[nH]1 [Oteracil] | > 45.8 | > 45.8
CCN(CC)C(=O)N[C@H]1C[C@@H]2c3cccc4[nH]cc(c34)C[C@H]2N(C)C1 [Terguride] | > 45.8 | > 45.8
CCC[C@@H]1CC(=O)N([C@@H](CC)C(N)=O)C1 [Brivaracetam] | > 45.8 | > 45.8
CCCCCCCCCCCCCC(=O)OCC(COP(=O)([O-])OCC[N+](C)(C)C)OC(=O)CCCCCCCCCCCCC (racemic) [1,2-Ditetradecanoyl-rac-glycerol-3-phosphocholine] | > 45.8 | > 45.8
CC(=NNC(=O)c1ccncc1)C(=O)O [Isoniazid pyruvate] | > 45.8 | > 45.8
CCC1(C)CC(=O)NC1=O (centres undefined) [Ethosuximide] | > 45.8 | > 45.8
CCCCCCCCCCCCCCCCCC(=O)O [Octadecanoic acid] | > 45.8 | > 45.8
Cc1ccc2c(c1)[C@]13CCCC[C@@H]1[C@H](C2)N(C)CC3 [Dimemorfan phosphate] | > 45.8 | > 45.8
O=[N+]([O-])c1cc([As](=O)(O)O)ccc1O [4-Hydroxy-3-nitrophenylarsonic acid] | > 45.8 | > 45.8
CC(C)(C)NCC(O)c1ccccc1Cl (centres undefined) [Tulobuterol hydrochloride] | > 45.8 | > 45.8
CCCn1cnc2c1c(=O)n(CCCCC(C)=O)c(=O)n2C [Propentofylline] | > 45.8 | > 45.8
CC(C)CCON=O [3-Methylbutyl nitrite] | > 45.8 | > 45.8
